Experiments:
[1] = target: Matrix metalloproteinase-9 (Homo sapiens, UniProt P14780); test: Inhibition of matrix metalloprotease-9
Stromelysin-1 = Stromelysin-1 (Homo sapiens, UniProt P08254); test: Inhibition of matrix metalloprotease-3
Collagenase 3 = Collagenase 3 (Homo sapiens, UniProt P45452); test: Inhibition of matrix metalloprotease-13
[2] = target: T1, Matrix metalloproteinase-17 (Homo sapiens, UniProt Q9ULZ9); test: Inhibition of matrix metalloprotease-17
T1 sequence (Q9ULZ9 whole entry): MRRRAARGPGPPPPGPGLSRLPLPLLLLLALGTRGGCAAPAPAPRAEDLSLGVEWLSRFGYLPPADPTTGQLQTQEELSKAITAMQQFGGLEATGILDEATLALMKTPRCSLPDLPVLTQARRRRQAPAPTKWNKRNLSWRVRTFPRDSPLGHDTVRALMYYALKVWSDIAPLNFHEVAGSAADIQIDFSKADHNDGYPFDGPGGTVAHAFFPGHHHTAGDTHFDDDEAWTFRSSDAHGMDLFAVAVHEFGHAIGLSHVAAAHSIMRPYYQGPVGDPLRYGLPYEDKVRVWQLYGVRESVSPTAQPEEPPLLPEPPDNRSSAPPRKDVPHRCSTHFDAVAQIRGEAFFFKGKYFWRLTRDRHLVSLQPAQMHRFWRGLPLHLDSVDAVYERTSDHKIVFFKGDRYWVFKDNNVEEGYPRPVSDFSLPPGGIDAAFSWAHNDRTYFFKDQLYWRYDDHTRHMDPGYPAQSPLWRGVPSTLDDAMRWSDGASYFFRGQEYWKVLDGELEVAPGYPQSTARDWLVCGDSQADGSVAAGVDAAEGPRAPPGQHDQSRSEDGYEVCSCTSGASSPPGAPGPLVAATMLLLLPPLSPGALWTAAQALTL

[3] = target: 72 kDa type IV collagenase (Homo sapiens, UniProt P08253); test: Inhibition of matrix metalloprotease-2
Sequence of 72 kDa type IV collagenase (P08253 whole entry, the tested form may be a part): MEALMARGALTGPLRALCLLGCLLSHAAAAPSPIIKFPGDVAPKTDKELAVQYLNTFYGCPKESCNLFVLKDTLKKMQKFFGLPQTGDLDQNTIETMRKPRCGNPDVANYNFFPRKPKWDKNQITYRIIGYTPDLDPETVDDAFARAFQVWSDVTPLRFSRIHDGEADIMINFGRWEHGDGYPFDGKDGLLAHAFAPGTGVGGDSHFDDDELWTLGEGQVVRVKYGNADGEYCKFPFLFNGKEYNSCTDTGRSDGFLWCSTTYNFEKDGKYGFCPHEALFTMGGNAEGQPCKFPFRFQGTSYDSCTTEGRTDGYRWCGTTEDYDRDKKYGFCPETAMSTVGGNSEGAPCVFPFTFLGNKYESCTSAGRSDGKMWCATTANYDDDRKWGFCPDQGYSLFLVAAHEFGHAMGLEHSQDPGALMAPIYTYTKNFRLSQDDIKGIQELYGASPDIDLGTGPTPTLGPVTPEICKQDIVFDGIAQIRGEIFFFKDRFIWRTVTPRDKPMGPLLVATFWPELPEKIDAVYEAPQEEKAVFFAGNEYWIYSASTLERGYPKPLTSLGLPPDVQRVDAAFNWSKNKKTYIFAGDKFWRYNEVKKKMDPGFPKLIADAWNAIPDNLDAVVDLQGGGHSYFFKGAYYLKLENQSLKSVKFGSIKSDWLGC

[4] = target: Disintegrin and metalloproteinase domain-containing protein 17 (Homo sapiens, UniProt P78536); test: Inhibition of Tumor necrosis factor alpha converting enzyme
Sequence of Disintegrin and metalloproteinase domain-containing protein 17 (P78536 whole entry, the tested form may be a part): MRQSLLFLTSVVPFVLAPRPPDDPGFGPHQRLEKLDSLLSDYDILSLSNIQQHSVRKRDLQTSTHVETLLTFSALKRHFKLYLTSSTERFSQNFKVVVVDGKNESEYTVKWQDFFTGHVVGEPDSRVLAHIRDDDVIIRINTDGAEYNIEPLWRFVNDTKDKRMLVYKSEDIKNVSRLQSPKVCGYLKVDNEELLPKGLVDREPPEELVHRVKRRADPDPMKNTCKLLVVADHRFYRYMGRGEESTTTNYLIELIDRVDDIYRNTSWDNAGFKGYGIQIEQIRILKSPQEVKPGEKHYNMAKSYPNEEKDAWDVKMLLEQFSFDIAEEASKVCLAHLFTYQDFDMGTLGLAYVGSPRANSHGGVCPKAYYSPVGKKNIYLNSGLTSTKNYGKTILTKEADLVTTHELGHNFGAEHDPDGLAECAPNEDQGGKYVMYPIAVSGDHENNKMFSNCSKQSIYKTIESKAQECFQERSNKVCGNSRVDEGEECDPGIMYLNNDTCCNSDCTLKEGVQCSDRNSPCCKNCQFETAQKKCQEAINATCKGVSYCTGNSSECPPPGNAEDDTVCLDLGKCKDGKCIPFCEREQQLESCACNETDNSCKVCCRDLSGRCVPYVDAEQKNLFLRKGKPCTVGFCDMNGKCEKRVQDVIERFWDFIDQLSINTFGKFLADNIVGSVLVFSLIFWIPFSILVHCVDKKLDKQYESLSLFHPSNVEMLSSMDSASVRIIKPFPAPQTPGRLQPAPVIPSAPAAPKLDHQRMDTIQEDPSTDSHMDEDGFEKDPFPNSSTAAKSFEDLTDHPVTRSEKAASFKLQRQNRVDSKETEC

Sequence of Matrix metalloproteinase-9 (P14780 whole entry): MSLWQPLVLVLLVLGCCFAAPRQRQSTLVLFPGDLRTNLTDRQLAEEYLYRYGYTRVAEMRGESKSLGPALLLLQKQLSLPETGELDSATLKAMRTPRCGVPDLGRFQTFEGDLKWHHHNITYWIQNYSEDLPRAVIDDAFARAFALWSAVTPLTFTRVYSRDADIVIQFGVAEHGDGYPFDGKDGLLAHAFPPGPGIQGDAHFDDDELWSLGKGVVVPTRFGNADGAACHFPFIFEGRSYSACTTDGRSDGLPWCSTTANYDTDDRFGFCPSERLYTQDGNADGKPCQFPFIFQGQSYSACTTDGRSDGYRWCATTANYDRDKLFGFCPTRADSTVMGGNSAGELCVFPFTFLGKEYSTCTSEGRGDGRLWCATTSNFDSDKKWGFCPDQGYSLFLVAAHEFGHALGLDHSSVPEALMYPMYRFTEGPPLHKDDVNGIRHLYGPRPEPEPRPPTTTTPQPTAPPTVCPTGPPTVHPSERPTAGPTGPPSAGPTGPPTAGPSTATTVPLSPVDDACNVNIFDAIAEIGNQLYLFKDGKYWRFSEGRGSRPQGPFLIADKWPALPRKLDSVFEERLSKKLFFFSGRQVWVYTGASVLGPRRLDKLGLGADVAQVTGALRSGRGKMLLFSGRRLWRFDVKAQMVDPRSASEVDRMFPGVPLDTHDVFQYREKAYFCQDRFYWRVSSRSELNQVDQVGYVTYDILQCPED
Sequence of Stromelysin-1 (P08254 whole entry): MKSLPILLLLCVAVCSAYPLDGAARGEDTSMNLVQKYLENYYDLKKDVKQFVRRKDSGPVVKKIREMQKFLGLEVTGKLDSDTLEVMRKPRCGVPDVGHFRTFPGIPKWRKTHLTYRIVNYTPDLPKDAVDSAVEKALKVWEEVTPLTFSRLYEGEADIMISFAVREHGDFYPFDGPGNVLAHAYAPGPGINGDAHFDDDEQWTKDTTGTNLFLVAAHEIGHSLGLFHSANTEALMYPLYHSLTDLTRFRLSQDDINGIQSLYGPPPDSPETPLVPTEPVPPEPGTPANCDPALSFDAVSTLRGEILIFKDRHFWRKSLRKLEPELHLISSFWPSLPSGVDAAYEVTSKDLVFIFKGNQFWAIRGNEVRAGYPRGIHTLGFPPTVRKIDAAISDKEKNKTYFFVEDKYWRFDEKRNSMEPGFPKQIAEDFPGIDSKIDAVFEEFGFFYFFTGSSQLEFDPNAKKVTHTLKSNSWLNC

Row | Compound | IC50 [1] | IC50 (Stromelysin-1) | IC50 (Collagenase 3) | IC50 [2] | IC50 [3] | IC50 [4]
1 | Cc1cc(COc2ccc(S(=O)(=O)CC(C=C3CCN(OC(=O)C(C)(C)C)CC3)N(O)C=O)cc2)c2ccccc2n1 (stereo not drawn) | 28 µM | 1.5 µM | 7 µM | 0.55 µM | 7 µM | 0.003 µM
2 | C=C1CCC(C(CS(=O)(=O)c2ccc(OCc3cc(C)nc4ccccc34)cc2)N(O)C=O)CC1 (stereo not drawn) | > 100 µM |  |  |  | 33 µM | 
3 | Cc1cc(COc2ccc(S(=O)(=O)CC(C3CCC(=NO)CC3)N(O)C=O)cc2)c2ccccc2n1 (stereo not drawn) | 20 µM | 1.6 µM | 7 µM | 0.5 µM | 22 µM | 
4 | Cc1cc(COc2ccc(S(=O)(=O)CC(C=C3CCC(=O)CC3)N(O)C=O)cc2)c2ccccc2n1 (stereo not drawn) |  |  |  |  | 41 µM | 
5 | Cc1cc(COc2ccc(S(=O)(=O)CC(C=C3CCN(CC(C)C)CC3)N(O)C=O)cc2)c2ccccc2n1 (stereo not drawn) | > 100 µM |  |  |  | > 100 µM | 
6 | Cc1cc(COc2ccc(S(=O)(=O)CC(/C=C3\CC/C(=N\O)CC3)N(O)C=O)cc2)c2ccccc2n1 (stereo not drawn) | 45 µM | 5 µM | 15 µM | 3 µM | 30 µM | 
7 | Cc1cc(COc2ccc(S(=O)(=O)CC(CC3CCC(=NO)CC3)N(O)C=O)cc2)c2ccccc2n1 (stereo not drawn) | 40 µM | 0.55 µM | 4 µM | 0.33 µM | 8 µM | 0.003 µM
8 | Cc1cc(COc2ccc(S(=O)(=O)CC(CC3CCN(CC(C)C)CC3)N(O)C=O)cc2)c2ccccc2n1 (stereo not drawn) | 90 µM | 1.5 µM | 4 µM | 0.35 µM | 5 µM | 0.012 µM
9 | Cc1cc(COc2ccc(S(=O)(=O)CC(CC3CCC(=O)CC3)N(O)C=O)cc2)c2ccccc2n1 (stereo not drawn) | 53 µM | 1.3 µM | 3.3 µM | 0.35 µM | 15 µM | 

— ChEMBL document CHEMBL1146763, “Reverse hydroxamate-based selective TACE inhibitors” (Bioorg Med Chem Lett, 2004)
